Data reported in patent publication US20080153756A1, “Novel Peptides and Methods for the Treatment of Inflammatory Disorders” (Auckland Uniservices Limited, priority 2005, published 2008).
Ends that are not written are not given here.

How the values were obtained:
[1] = system: adhesion of Mn++-activated TK-1 cells (α4+ β7+ β1−) to VCAM-1; assay: Cell adhesion assay: Mn2+-activated TK-1 cells to VCAM-1-Fc coated wells; assay type: cell-based, mouse; conditions: for maximal inhibition of adhesion to VCAM-1 / inhibition of cell adhesion to VCAM-1: Mn++-activated TK-1 cells; for inhibition of cell adhesion to VCAM-1: highest concentration tested, 50 μM
Procedure: The soluble VCAM-1-Fc chimera was produced using the glutamine synthetase gene amplification system. The extracellular portions of human VCAM-1 fused to the Fc domain of human IgG1 was expressed from the pEE14 vector (kindly provided by Dr Chris Bebbington, Celltech Ltd, UK) in CHO K1 cells as described previously (27).
(§1) Lab-Tek 16-well glass slides (Nunc) or flat-bottom 96-well plates (Nunc Maxisorp) were coated overnight at 4° C. with purified VCAM-1-Fc at 10 μg/well in 100 μl of 0.1 M carbonate buffer (pH 9.5). After washing plates were blocked with 100% heat-inactivated FCS, and washed with Hanks balanced salt solution (HBSS) containing 10 mM Hepes, 2 mM Ca^2+ and 2 mM Mn^2+. TK-1 cells were either left unlabeled or labeled with the fluorescent dye chloromethyl fluorescein diacetate (CMFDA; Molecular Probes, Oreg.). For peptide inhibition studies, TK-1 cells were preincubated with peptide in serum-free medium for 30 min at 37° C. and activated by suspension in an Mn^2+-containing buffer (HBSS: 10 mM Hepes containing 2 mM Ca^2+, 2 mM Mn^2+, and 2% FCS). Human IgG1 Ab (10 μg/ml; Sigma) was added to prevent nonspecific capture of cells to the Fc portion of […]. Cells were checked for viability by trypan blue exclusion, added to wells (10^6 cells/well), and incubated for 30 min at 37° C. in a humidified atmosphere of 5% CO2. Non-adherent cells were removed by inverse centrifugation of the plates at 70×g for 5 min followed by gentle pipette washing. The number of unlabeled adherent cells was determined by counting the number of adherent cells in four independent fields at 100× magnification under an inverted microscope. The fluorescence of CMFDA-labeled adherent cells was measured using a VICTOR 1420 multilabel counter (Wallac). Representative data are reported as mean±SD of two independent experiments performed in duplicate. Antibodies against the integrin β7 subunit (Fib504 mAb), and α4β7 complex (DATK32 mAb) were included as positive controls, and added (1:100 dilution of ascites) to cells 20 min prior to the adhesion assay.

[2] = system: adhesion of TK-1 (α4β7+ α4β1−) cells to MAdCAM-1; assay: Cell adhesion assay: TK-1 cells to MAdCAM-1-Fc coated plates; assay type: cell-based, mouse; conditions: PMA-activated TK-1 cells, peptide up to 50 μM
[3] = system: TK-1 cells; assay: Cell viability of peptide-treated TK-1 cells (trypan blue exclusion); assay type: cell-based, mouse; conditions: data not shown
Procedure: as §1, with “Non-adherent cells were removed by inverse centrifugation of the plates at 70×g for 5 min followed by gentle pipette washing.” left out, “Representative data are reported as mean±SD of two independent experiments performed in duplicate. Antibodies against the integrin β7 subunit (Fib504 mAb), and α4β7 complex (DATK32 mAb) were included as positive controls, and added (1:100 dilution of ascites) to cells 20 min prior to the adhesion assay.” left out

[4] = target: T1, soluble VCAM-1-Fc chimera (extracellular portions of human VCAM-1 fused to the Fc domain of human IgG1) (human, UniProt P19320 25-698); assay: cell-based or functional assay
T1 sequence (looked up): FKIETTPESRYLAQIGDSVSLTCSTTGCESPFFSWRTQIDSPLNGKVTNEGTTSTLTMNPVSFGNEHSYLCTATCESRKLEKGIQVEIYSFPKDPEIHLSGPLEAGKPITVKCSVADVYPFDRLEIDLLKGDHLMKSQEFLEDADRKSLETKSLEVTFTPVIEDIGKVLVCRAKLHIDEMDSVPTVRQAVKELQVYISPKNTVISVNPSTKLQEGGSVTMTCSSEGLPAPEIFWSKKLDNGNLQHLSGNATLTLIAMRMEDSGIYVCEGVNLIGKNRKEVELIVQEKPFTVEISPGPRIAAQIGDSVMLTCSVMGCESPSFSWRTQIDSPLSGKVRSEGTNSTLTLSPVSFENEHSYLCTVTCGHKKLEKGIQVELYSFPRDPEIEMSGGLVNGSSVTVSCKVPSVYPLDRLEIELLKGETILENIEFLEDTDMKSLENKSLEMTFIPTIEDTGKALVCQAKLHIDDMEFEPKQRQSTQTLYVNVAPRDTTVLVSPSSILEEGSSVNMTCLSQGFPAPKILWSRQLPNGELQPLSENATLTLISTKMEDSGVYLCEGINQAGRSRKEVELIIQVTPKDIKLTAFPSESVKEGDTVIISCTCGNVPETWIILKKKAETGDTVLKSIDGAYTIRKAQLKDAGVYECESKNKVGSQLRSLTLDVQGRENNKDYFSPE

## CC[C@H](C)[C@H](NC(=O)[C@H](Cc1ccc(O)cc1)NC(=O)[C@H](CO)NC(=O)[C@H](Cc1c[nH]c2ccccc12)NC(=O)[C@H](CO)NC(=O)[C@H](CC(=O)O)NC(=O)[C@H](CCCCN)NC(=O)[C@H](CCCCN)NC(=O)[C@H](Cc1c[nH]c2ccccc12)NC(=O)[C@H](CCCCN)NC(=O)[C@H](CCSC)NC(=O)[C@H](CCCNC(=N)N)NC(=O)[C@H](CCCNC(=N)N)NC(=O)[C@H](CC(N)=O)NC(=O)[C@H](CCC(N)=O)NC(=O)[C@H](Cc1ccccc1)NC(=O)[C@H](Cc1c[nH]c2ccccc12)NC(=O)[C@@H](NC(=O)[C@H](CCCCN)NC(=O)[C@@H](NC(=O)[C@H](CCC(N)=O)NC(=O)[C@@H](N)CCCNC(=N)N)[C@@H](C)CC)[C@@H](C)CC)C(=O)N[C@@H](CC(N)=O)C(=O)N[C@@H](CO)C(=O)N[C@@H](CCCCN)C(=O)N[C@@H](CO)C(=O)N[C@@H](CC(N)=O)C(=O)N[C@@H](CC(=O)O)C(=O)N[C@@H](CC(=O)O)C(=O)O [Pen-DSWSYINSKSNDD, DSWSYINSKSNDD]
[1]; Mn2+-activated TK-1 cells, FIG. 2A
  inhibition of T cell adhesion to VCAM-1 (in words): active
[1]; at 30 μM
  maximal inhibition of adhesion to VCAM-1: 72%

## DSWS
[2]
  inhibition of PMA-induced T cell adhesion to MAdCAM-1 (in words): inactive

## DSWSY [r9-DSWSY]
[1]
  inhibition of cell adhesion to VCAM-1: 75%

## DSWSYINS (not fully specified (N-terminus); also: N-terminal carrier biotinylated penetratin or r9, not given here for this peptide; listed as Homo sapiens) [r9-DSWSYINS]
[1]; at 6 μM peptide
  maximal inhibition of adhesion to VCAM-1: ~67%
[3]; 50 μM peptide
  cells killed: 15%

## KSNDD ({biotinylated r9}-KSNDD; listed as Homo sapiens) [r9-KSNDD]
[1]
  inhibition of cell adhesion to VCAM-1: 27%

## QYKSILQEENRRD [Pen-QYKSILQEENRRD]
[1]
  inhibition of cell adhesion to VCAM-1: 14%

## SWSY (listed as Homo sapiens)
[2]
  inhibition of PMA-induced T cell adhesion to MAdCAM-1 (in words): retained the ability of the parent peptide DSWSY to inhibit T cell adhesion

## YINSK ({biotinylated r9}-YINSK; listed as Homo sapiens) [r9-YINSK]
[1]
  inhibition of cell adhesion to VCAM-1: 80%

## YINSKSNDD (not fully specified (N-terminus); also: N-terminal carrier biotinylated penetratin or r9, not given here for this peptide; listed as Homo sapiens) [r9-YINSKSNDD]
[1]; at 6 μM peptide
  maximal inhibition of adhesion to VCAM-1: ~67%
[3]
  effect on cell viability (in words): no effect

B1: integrin α4β7 on mouse TK-1 T lymphoma cells (α4β7+ α4β1-) (receptor)
chain 1: YNLDPENALLYQGPSGTLFGYSVVLHSHGSKRWLIVGAPTASWLSNASVVNPGAIYRCGIRKNPNQTCEQLQSGSPSGEPCGKTCLEERDNQWLGVTLSRQPGENGSIVTCGHRWKNIFYMKSDNKLPTGICYVMPSDLRTELSKRMAPCYKDYTRKFGENFASCQAGISSFYTQDLIVMGAPGSSYWTGTVFVYNITTNQYKAFVDRQNQVKFGSYLGYSVGAGHFRSPHTTEVVGGAPQHEQIGKAYIFSIDENELNIVYEMKGKKLGSYFGASVCAVDLNADGFSDLLVGAPMQSTIREEGRVFVYINSGMGAVMVEMERVLVGSDKYAARFGESIANLGDIDNDGFEDIAIGAPQEDDLRGAVYIYNGRVDGISSTYSQRIEGQQISKSLRMFGQSISGQIDADNNGYVDVAVGAFQSDSAVLLRTRPVVIVEASLSHPESVNRTKFDCTENGLPSVCMHLTLCFSYKGKEVPGYIVLFYNVSLDVHRKAESPSRFYFFSNGTSDVITGSIRVSSSGEKCRTHQAFMRKDVRDILTPIHVEATYHLGHHVITKRNTEEFPPLQPILQQKKEKDVIRKMINFARFCAYENCSADLQVSAKVGFLKPYENKTYLAVGSMKTIMLNVSLFNAGDDAYETTLNVQLPTGLYFIKILDLEEKQINCEVTESSGIVKLACSLGYIYVDRLSRIDISFLLDVSSLSRAHEDLSISVHASCENEGELDQVRDNRVTLTIPLRYEVMLTVHGLVNPTSFVYGSSEENEPETCMAEKLNLTFHVINTGISMAPNVSVKIMVPNSFLPQDDKLFNVLDVQTTTGQCHFKHYGRECTFAQQKGIAGTLTDIVKFLSKTDKRLLYCMKADQHCLDFLCNFGKMESGKEASVHIQLEGRPSILEMDETSSLKFEIKATAFPEPHPKVIELNKDENVAHVFLEGLHHQRPKRHFTIIIITISLLLGLIVLLLISCVMWKAGFFKRQYKSILQEENRRDSWSYVNSKSNDD
chain 2: ELDTKITSSGEAAEWEDPDLSLQGSCQPVPSCQKCILSHPSCAWCKQLNFTASGEAEARRCARREELLARGCPAQELEEPRGRQEVLQDKPLSQGDRGEGATQLAPQRIRVTLRPGEPQKFRVRFLRAAGYPVDLYYLMDLSYSMKDDLERVRQLGHALLVRLQEVTHSVRIGFGSFVDKTVLPFVSTVPSKLHHPCPSRLERCQPPFSFHHVLSLTGDAQAFEREVGRQNVSGNLDSPEGGFDAILQAALCQEQIGWRNVSRLLVFTSDDTFHTAGDGKLGGIFMPSDGRCHLDSNGVYTNSAEFDYPSVGQVAQALTAANIQPIFAVTGATLPVYQELRQLIPKSAVGELSEDSSNVVQLIMDAYDSLSSTVTLEHSPLPPGVSISFESHCKGPEKTEGEAGDRGQCNDVRVNQTVDFWVTLQATHCLPEAHVLRLWALGFSEELTVELHTVCDCNCGDAQPHAPYCSDGQGDLQCGICSCAPGRLGQLCECSEADLSSPDLESGCRAPNGTGPLCSGKGRCQCGRCSCSGQSSGRLCECDDASCERHEGILCGGFGHCQCGVCHCHANHTGRACECSKSVDSCVSPEGGLCSGHGYCKCNRCQCLDGYYGALCDQCLGCKSPCEQYRDCAECGAFGTGPLAANCSVVCADVNVTLTLAPNLDDGWCKERTIDNQLFFFLVEHAASGIVLRVRPQEKGVDHTRAIILGCTGGIVAVGLGLVLAYRLSVEIYDRREYRRFEKEQQQLNWKQDNNPLYKSAITTTVNPRFQGTNGRSPSLSLTREAD
[4]
  IC50 of the cell-permeable peptide Pen-… for inhibition of adhesion of Mn++-activated TK-1 cells to VCAM-1: 20 µM
